Our source for the IC50 values is publication PMC8022998 (Biomacromolecules, 2020).

The assay has as its target TSPO (translocator protein (18 kDa)) (Oryctolagus cuniculus, UniProt G1SMF7). Description: [3H]-PK11195 radioligand displacement, size exclusion desalting plates. The class given is binding. To be noted: 1.2 nM [3H]-PK11195, 50 mM Tris-HCl pH 7.4, 30 min, room temperature; isolated mitochondria. For orientation: In a radioligand displacement assay an active substance lowers the binding of a labelled ligand.

Chain of TSPO (translocator protein (18 kDa)) (G1SMF7 229-397): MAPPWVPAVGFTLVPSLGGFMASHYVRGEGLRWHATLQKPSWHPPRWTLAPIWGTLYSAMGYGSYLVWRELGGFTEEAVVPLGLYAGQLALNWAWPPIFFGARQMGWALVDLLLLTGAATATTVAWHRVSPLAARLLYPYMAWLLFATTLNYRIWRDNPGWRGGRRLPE

In general, IC50 refers to the concentration needed to halve the response being measured. Turning to `CCN(CC)C(=O)Cc1c(-c2ccc(OCCn3cc(CO)nn3)cc2)nn2c(C)cc(C)nc12` [DPA-triazole], the IC50 turned out to be 100 ± 20 nM.
For `CCC(C)N(C)C(=O)c1cc2ccccc2c(-c2ccccc2Cl)n1` (centres unmarked) [PK11195], the IC50 worked out at 5 ± 0.5 nM.
